The subject of data set [1] is BFU-E (Burst Forming Unit-Erythroid) progenitors from CD34+ cells. The experiment in a line: Colony assay in methylcellulose, BFU-E. To be noted: for IC50: Homo sapiens. It is filed as cell-based, human. As for the experimental part: (§1) CD34^+cells were obtained from leukapheresis samples after mobilization of donors after informed consent in agreement with our Institute Ethic Committee (Assistance Publique des Hôpitaux de Paris) and in accordance with the Declaration of Helsinki. CD34^+cells were isolated by a positive selection using an immunomagnetic cell sorting system (AutoMacs; Miltenyi Biotec, Bergisch Gladbach, Germany). 500 to 1000 normal CD34^+cells were plated either in 1% methylcellulose assay (StemCells technologies, Vancouver, Canada) to quantify erythroid (BFU-E) and granulo-monocytic (CFU-GM) progenitors or in serum-free fibrin clot assay for quantification of MK progenitors (CFU-MK) in the absence or presence of various concentration of SAR405838 or MI-219. Cultures in methylcellulose were stimulated by addition of human recombinant growth factors: G-CSF (20 ng/mL), IL-3 (10 ng/mL) SCF (25 ng/mL, Biovitrum AB, Stockholm, Sweden), IL-6 (10 ng/mL), FLT3 (10 ng/mL) and human EPO (1 U/mL). Cultures in fibrin clot were stimulated with 10 ng/mL TPO (Kirin Brewery, Tokyo, Japan) and 25 ng/mL SCF. BFU-E and CFU-GM colonies were enumerated at day 14 of culture. CFU-MK colonies were enumerated at day 12 after labeling by an indirect immuno-alkaline phosphatase staining technique using an anti-CD41a monoclonal antibody (MoAb; Becton Dickinson, le Pont de Claix, France; clone HIP8), as previously described.

Data set [2] deals with CFU-GM (Colony Forming Unit-Granulocyte Macrophage) progenitors from CD34+ cells. The experiment in a line: Colony assay in methylcellulose, CFU-GM. Particulars: Homo sapiens, CFU-GM. Type of data set: cell-based, human. As for the experimental part: as §1, with “BFU-E and CFU-GM colonies were enumerated at day 14 of culture.” left out
Data set [3] relates to Day 8-erythroblasts. The experiment in a line: Apoptosis of erythroblasts, Annexin V flow cytometry. Type of data set: cell-based, human. Particulars: 48 hour treatment, as low as 0.5 μM.
Experimental: For that purpose, CD34^+ progenitors were cultured in serum-free medium with SCF and EPO for 8 days. […] Day 8-erythroblasts were treated with various doses of SAR405838 or MI-219 for 48 hours. The viable cells were counted by Trypan blue exclusion and the apoptotic cells were quantified by flow cytometry analysis using annexin V/ propidium iodide labeling.
B. Day 8-erythroblasts were treated with various doses of MI-219 or SAR405838 for 48 hours and counted by trypan blue exclusion. C. Day 8-erythroblasts were treated with various doses of MI-219 or SAR405838 for 48 hours and apoptotic cells were analyzed by flow cytometry using Annexin V assay. The results represent the mean of 3 independent experiments. * represents statistical significance (*P<0.05; **P<0.01; ***P<0.001).
Data set [4] concerns megakaryoblasts / MKs. Put plainly: Apoptosis of megakaryoblasts/MKs, Annexin V flow cytometry. Type of data set: cell-based, human. To be noted: day 6-megakaryoblasts. As to the method: (§2) We also explored the effects of p53 stabilization at a later stage of megakaryocytic differentiation. […] Day 7-MKs were treated with 5 μM Nutlin 3a for 24 or 48 hours, which led to an increase in p53, p21, BAX, BCL2 and BCL-XL levels, confirming a functional p53 activity (Figure 6A). […] Similar results were found with day 6-megakaryoblasts treated with two doses of SAR405838 for 72 hours (Figure 6D/6E) without any major effect on the percentage of CD41^+ cells (Figure 6F). […] As shown in Figure 6D/6E, at the dose of 0.5 μM the SAR405838 induced a 50% decreased in the number of viable cells while the apoptotic cells reached 50% of the total cells. We checked if the effect of SAR405838 on MKs could be reverted by the addition of high TPO doses. CD34^+ progenitors were cultured in serum-free medium supplemented with SCF and low dose of TPO (1 ng/mL) for 6 days. Day 6-megakaryoblasts were then treated with 1.5 μM of SAR405838 for 48 hours and various doses of TPO.
(§3) In parallel, the expression of P53, BAK, BCL2L1, NOXA, PUMA, BAX, P21 and P53 were quantified by qRT-PCR related to HPRT. C. […] (n=3). […]
Apoptosis was measured by Annexin V-FITC detection kit (BD Pharmigen, San Diego, CA) and analyzed by flow cytometry on a LSRII (Becton Dickinson Mountain View, CA).
On the technique in general: In flow cytometry, cells or beads pass a laser one at a time.

Data set [5] concerns p53 pathway in megakaryocytes (MKs). Put plainly: p53 pathway proteins and transcripts in MKs (western-blot, qRT-PCR). It is filed as cell-based, human. To be noted: day 11-MKs, 1 μM, 24 hours (legend: 5 μM), compared to 1 μM MI-219 or untreated control. As for the experimental part: as §2, §3
PCRs were carried out in the ABI Prism GeneAmp 5700 (Perkin-Elmer) using the Power SYBR-Green PCR Master Mix (ABI) containing the specific primers. The expression levels of all genes were calculated relatively to HPRT or to PPIA housekeeping gene.
Proteins were quantified by Image J software.
(In qPCR the cycle at which signal appears reflects the starting amount.)

On the set-up of data set [6]: method as in PMID 25145672. To be noted: cited from earlier work.

Molecules are shown by their SMILES. Read-outs that look alike come from different tables or passages of the source.

Regarding `CC(C)(C)C[C@@H]1N[C@@H](C(=O)N[C@H]2CC[C@H](O)CC2)[C@H](c2cccc(Cl)c2F)[C@]12C(=O)Nc1cc(Cl)ccc12` [SAR405838], the IC50 is about 2000 nM in data set [1] (72 h, CD34+ cells treated 3 days, washed, then plated in colony assay, read-out: IC50, reduction of BFU-E progenitors); 500 to 1000 nM in data set [1] (CD34+ cells seeded in methylcellulose in the presence of compound, compared to untreated control, read-out: dose inducing a 50% reduction of BFU-E numbers); about 2000 nM in data set [2] (72 h, CD34+ cells treated 3 days, washed, then plated in colony assay, read-out: IC50, reduction of CFU-GM progenitors); 500 to 1000 nM in data set [2] (CD34+ cells seeded in methylcellulose in the presence of compound, compared to untreated control, read-out: dose inducing a 50% reduction of CFU-GM numbers). Also, the “higher sensitivity of CD34+CD38- progenitors than CD34+CD38+ progenitors (BFU-E)” value in data set [1] (sorted CD34+CD38- immature vs CD34+CD38+ committed cells) is 2 fold. Moreover, the “apoptotic cells (annexin V/propidium iodide)” value in data set [3] is “increased in a dose-dependent manner”. For the same molecule, the “apoptotic cells, of the total cells” value in data set [4] (0.5 μM, 72 hours) is given as 50%. In addition, the “reversal of compound-mediated MK apoptosis by increasing doses of TPO” value in data set [4] (1.5 μM for 48 hours, various doses of TPO) is listed as “unable to revert”. Also, the “P21, BAX, PUMA and BCL2L1 transcripts (qRT-PCR related to HPRT)” value in data set [5] was “significant increase”. The hematopoietic toxicity entry in data set [6] is “reversible thrombocytopenia”.

(Values after publication PMC5077990, “P53 activation inhibits all types of hematopoietic progenitors and all stages of megakaryopoiesis” (Oncotarget, 2016).)
